Test results published in PMC4433340 (PLoS Neglected Tropical Diseases, 2015).

What was measured:
[1] = tested on: NF-κB p65 in T. cruzi-infected EA.hy926 cells; assay: Nuclear p65 localization by confocal microscopy; type: cell-based, human; details: 5 μM simvastatin or 20 μM benznidazole before T. cruzi 1 hour
Protocol: 2x10^4 EA.hy926 cells were seeded in Lab-Tek II Chamber Slides^TM for 12 hours. Cells were fixed in 3.7% formaldehyde–0.1 M phosphate buffer (pH 7.3) for 10 min. They were then washed with cytoskeletal buffer followed by permeabilization for 5 min with Triton-X100 0.5%. Cells were blocked with 3% bovine serum albumin for 1 hour. […] The samples were washed with PBS and incubated with anti-rabbit IgG conjugated with fluorescein (1:100) from Sigma-Aldrich for 1 hour. Finally, nuclei were stained with DAPI for 5 minutes and mounted in Dako fluorescence mounting media. The cells were photographed and ten pictures per well were obtained; images were analyzed using ImageJ software (ImageJ 1.47v).

[2] = tested on: 15-epi-lipoxin A4 production by T. cruzi-infected EA.hy926 cells; assay: 15-epi-lipoxin A4 quantification by DSA-TOF MS in culture supernatants; type: cell-based, human; details: 5 μM simvastatin
Protocol: 8x10^5 EA.hy926 cells/well were cultured in 6-well plates (IMDM 10% SFB). […] 15-epi-LXA4 determination was performed by:
• ELISA assay: the supernatant from the cell cultures was assayed using a 15-epi-LXA4 BioAssay ELISA Kit (USBiological, USA) following manufacturer’s instructions. • AxION DSA—TOF MS determination: To determine 15-epi-lipoxin A4 levels in EAhy926 cell culture supernatants, an AxION Direct Sample Analysis (DSA) that was integrated with an AxION 2 time-of-flight (TOF) mass spectrometer (PerkinElmer, Shelton, CT, USA) was employed. For extraction, all of the samples were loaded onto a solid phase extraction and eluted with 1 mL chloroform three times successively. Then, the samples were transferred into a clean tube, and the chloroform in the samples was evaporated in a water bath. Finally, the samples were resuspended in 100 μL ethanol, and 10 μL were pipetted onto a stainless mesh. For the calibration curve, 15-epi-lipoxin A4 (cat#90415, Cayman Chemical, USA) was diluted in PBS to achieve different final concentrations (see S1 Fig). From each tube, 10 μL was pipetted onto a stainless mesh, and DSA—TOF determination was performed. The AxION DSA conditions were as follows: 5 μA corona current, 250°C heater temperature, 80 psi auxiliary gas (N2) pressure, 4 L/min drying gas (N2) flow, and 25°C drying gas (N2) temperature. […] Mass spectra were acquired with a mass range of 100–1000 m/z and an acquisition rate of 2 spectra/sec. To maintain mass accuracy, […] lock mass ions were used (m/z 119.0400, m/z 556.0000 and m/z 805.9900). All of the samples were analyzed for only 10 sec. The standards used were 15-epi-lipoxin A4 (cat#90415, Cayman Chemical,) and 5(S),6(R)-Lipoxin A4 methyl ester (cat#10033, Cayman Chemical) as an internal standard. These were confirmed in seconds by accurate mass and isotopic distribution of parent and fragment ions using DSA/TOF and AxION software, and compound identification was performed using the standards. All of the samples were analyzed in triplicate.

T. cruzi epimastigotes = details: at concentrations in the millimolar range; cited from earlier work

SMILES	Nuclear p65 localization [1]	15-epi-lipoxin A4 concentration (Mean ± SD) ([2]; 3 hours)	15-epi-lipoxin A4 concentration (Mean ± SD) ([2]; 6 hours)	15-epi-lipoxin A4 concentration (Mean ± SD) ([2]; 12 hours)	15-epi-lipoxin A4 concentration (Mean ± SD) ([2]; 24 hours)	Epimastigote proliferation (T. cruzi epimastigotes)
O=C(Cn1ccnc1[N+](=O)[O-])NCc1ccccc1 [Benznidazole]	decreased nuclear p65 localization					
CCC(C)(C)C(=O)O[C@H]1C[C@@H](C)C=C2C=C[C@H](C)[C@H](CC[C@@H]3C[C@@H](O)CC(=O)O3)[C@H]21 [Simvastatin]		1.58 ± 0.21 ng/mL	3.58 ± 1.22 ng/mL	37.28 ± 11.23 ng/mL	326 ± 34.25 ng/mL	decreased epimastigote proliferation
